Data on one molecule can be found in PubChem BioAssay (NCI).

Experiment in all cases: inhibition of tumour cell growth, NCI panel, 48 h
Experiment [1] has as its system NCI/ADR-RES ovarian.
Experiment [2] deals with HCT-15 colon.
Experiment [3] has as its system HT29 colon.
The subject of experiment [4] is RPMI-8226 leukemia.
The test system of experiment [5] is MOLT-4 leukemia.
Experiment [6] deals with CAKI-1 renal.
The subject of experiment [7] is SK-MEL-28 melanoma.
For experiment [8], the system named is MALME-3M melanoma.
In experiment [9] the test system is ACHN renal.
Experiment [10] deals with HCT-116 colon.

SMILES strings stand for the structures.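 Protocol summary: plate cells (96-well), add compound at 5 concentrations, incubate 48 h, interpolate endpoints linearly. At the GI50, growth is halved. TGI is the concentration that stops growth completely.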 Bounds are passed on as bounds.

As for `O=c1cccc(C#CC#CC2=CCCCC2)o1`, the GI50 in [1] was 6.99 µM; in experiment [2], 2.76 µM; in experiment [3] it was 14 µM; in experiment [4], 2.19 µM; in experiment [5], 0.309 µM; in experiment [6], 6.48 µM. In addition, the GI50 is over 29.9 µM in experiment [7], 7.34 µM in experiment [8], 4.49 µM in experiment [9] and 1.16 µM in experiment [10]. In addition, the TGI in experiment [1] was 20.4 µM; in experiment [2], 10.9 µM; in [3], over 100 µM; in [4], 5.83 µM; in experiment [5] it was over 33 µM; in experiment [6], 10.3 µM. Besides, the TGI in [7] was over 52.6 µM; in [8], 13.8 µM; in experiment [9], 10 µM; in experiment [10], 3.67 µM.
